For data set [1], the system named is HuCCT-1. In words: Induction of apoptosis in human HuCCT1 cells after 72 hrs. It counts as functional, cell-based.
Data set [2] deals with MIA PaCa-2. Put plainly: Growth inhibition of human MIAPaCa2 cells at 4 uM after 72 hrs by MTT assay relative to control. The data set is classed as functional. The settings on record: MIA PaCa-2, 72 h, read-out: GI. A general note: Tetrazolium assays rely on reduction of a dye to a coloured formazan, in cell work by metabolically active cells.
In data set [3] the test system is MIA PaCa-2. Put plainly: Growth inhibition of human MIAPaCa2 cells at 10 uM after 72 hrs by MTT assay relative to control. The data set is classed as functional. The settings on record: for inhibition of growth at 10 µM: MIA PaCa-2, 72 h, read-out: GI.
Data set [4] deals with MIA PaCa-2. In words: Inhibition of Akt phosphorylation in human MIAPaCa2 cells assessed as effect on […] at 7 uM after 48 hrs by immunoblotting. It counts as cell-based. A general note: A western blot detects proteins with antibodies after separation by electrophoresis.
Data set [5] deals with MIA PaCa-2. Put plainly: Downregulation of K-ras in human MIAPaCa2 cells at 10 uM after 72 hrs by agarose gel electrophoresis. It counts as functional, cell-based.
The subject of data set [6] is MIA PaCa-2. Put plainly: Inhibition of ERK phosphorylation in human MIAPaCa2 cells assessed as reduction in phospho-ERK levels at 7 uM after 48 hrs by immunoblotting. It counts as cell-based.
The subject of data set [7] is HuCCT-1. Put plainly: (§1) Growth inhibition of human HuCCT1 cells at 10 uM after 72 hrs by MTT assay relative to control. It counts as functional.
In data set [8] the test system is MIA PaCa-2. In words: Induction of apoptosis in human MIAPaCa2 cells after 72 hrs. It counts as functional, cell-based.
The nature of data set [9]: Downregulation of H-ras in human HuCCT1 cells at 6 uM after 72 hrs by agarose gel electrophoresis. The settings on record: HuCCT-1. The data set is classed as functional, cell-based.
In data set [10] the test system is MIA PaCa-2. In words: Cytotoxicity against human MIAPaCa2 cells after 72 hrs by MTT assay. The data set is classed as functional, cell-based. The note with it: MIA PaCa-2, 72 h.
Data set [11] concerns HuCCT1. In words: Inhibition of Akt phosphorylation in human HuCCT1 cells assessed as reduction in phospho-Akt levels at 6 uM after 48 hrs by immunoblotting. The data set is classed as cell-based.
Data set [12] in a line: (§2) Cytotoxicity against human HuCCT1 cells after 72 hrs by MTT assay. The data set is classed as functional, cell-based. The settings on record: HuCCT-1, 72 h.
The subject of data set [13] is HuCCT-1. The description is as §2. It counts as functional, cell-based.
Data set [14] relates to MIA PaCa-2. In words: Downregulation of K-ras in human MIAPaCa2 cells at 7 uM after 72 hrs by agarose gel electrophoresis. It counts as functional, cell-based.
Data set [15] is described as follows: Downregulation of K-ras in human HuCCT1 cells at 6 uM after 72 hrs by agarose gel electrophoresis. The note with it: HuCCT-1. The data set is classed as functional, cell-based.
A short description of data set [16]: Downregulation of K-ras in human HuCCT1 cells at 2 uM after 72 hrs by agarose gel electrophoresis. It counts as functional, cell-based. The note with it: HuCCT-1.
Data set [17] relates to HuCCT1. In words: Inhibition of ERK phosphorylation in human HuCCT1 cells assessed as reduction in phospho-ERK levels at 6 uM after 48 hrs by immunoblotting. It counts as cell-based.
Data set [18] in a line: Growth inhibition of human HuCCT1 cells at 4 uM after 72 hrs by MTT assay relative to control. The note with it: HuCCT-1, 72 h, read-out: GI. It counts as functional.
The test system of data set [19] is Nucleic Acid. In words: Ratio of drug level in human MIAPaCa2 cells to human HuCCT1 cells at 30 mins. The settings on record: mia paca-2, 0.5 h. It counts as ADME, cell-based.
Data set [20] can be described thus: as §1. The data set is classed as functional. The settings on record: HuCCT-1, 72 h, read-out: GI.
Data set [21] is described as follows: Cellular uptake in human HuCCT1 cells at 10 uM up to 30 mins by HPLC analysis. The settings on record: hucct-1, 0.5 h. It counts as ADME, cell-based.
In data set [22] the test system is MIA PaCa-2. Put plainly: Growth inhibition of human MIAPaCa2 cells at 1 uM after 72 hrs by MTT assay. It counts as functional. The note with it: MIA PaCa-2, 72 h, read-out: GI.
Data set [23] is described as follows: Downregulation of H-ras in human HuCCT1 cells at 2 uM after 72 hrs by agarose gel electrophoresis. It counts as functional, cell-based. The settings on record: HuCCT-1.
The nature of data set [24]: Downregulation of N-ras in human HuCCT1 cells at 2 uM after 72 hrs by agarose gel electrophoresis. It counts as functional, cell-based. The note with it: HuCCT-1.
For data set [25], the system named is HuCCT1. Put plainly: Inhibition of ERK phosphorylation in human HuCCT1 cells assessed as reduction in phospho-ERK levels at 2 uM after 48 hrs by immunoblotting. It counts as cell-based.
For data set [26], the system named is MIA PaCa-2. Put plainly: Inhibition of ERK phosphorylation in human MIAPaCa2 cells assessed as reduction in phospho-ERK levels at 10 uM after 48 hrs by immunoblotting. It counts as cell-based.
In data set [27] the test system is MIA PaCa-2. Put plainly: Inhibition of Akt phosphorylation in human MIAPaCa2 cells assessed as effect on […] at 10 uM after 48 hrs by immunoblotting. It counts as cell-based.
The nature of data set [28]: Growth inhibition of human HuCCT1 cells at 1 uM after 72 hrs by MTT assay relative to control. The data set is classed as functional. The settings on record: HuCCT-1, 72 h, read-out: GI.
Data set [29] has as its system HuCCT1. Put plainly: Inhibition of Akt phosphorylation in human HuCCT1 cells assessed as reduction in phospho-Akt levels at 2 uM after 48 hrs by immunoblotting. It counts as cell-based.
The subject of data set [30] is MIA PaCa-2. Put plainly: Cellular uptake in human MIAPaCa2 cells at 10 uM up to 30 mins by HPLC analysis. The data set is classed as ADME, cell-based. The note with it: mia paca-2, 0.5 h.
Data set [31] can be described thus: Cellular uptake in human HuCCT1 cells at 10 uM measured after 30 mins up to 60 mins. The data set is classed as ADME, cell-based. The note with it: hucct-1, 10 µM.

Calls of active or inactive are those of the source. The rule behind the calls is not given here.

On to `CC1=C(/C=C/C(C)=C/C=C/C(C)=C/C(=O)Nc2ccc(O)cc2)C(C)(C)CCC1` [FENRETINIDE], for which the outcome in data set [1] and in data set [8] was inactive. In addition, the inhibition of growth at 4 µM in [2] came to 8%; in data set [18], 17%. For the same molecule, the “growth inhibition (GI)” value in data set [3] and in data set [7] was “Active” throughout. Moreover, the inhibition in data set [4] is 30%. Further, the result in data set [5], in data set [9], in data set [14], in data set [15] and in data set [16] was Active. Further, the inhibition result in data set [6], in [11] and in data set [17] was “inactive” throughout. Further, the figures for the IC50 in [10] and in data set [12] were 7 µM and 6 µM, respectively. Also, the “growth inhibition (GI)” value in data set [13] was “Dose-dependent effect”.
For `CCCCCCCCCCCCNc1ccc(O)cc1`, the outcome in data set [1] and in data set [8] was inactive. Also, the inhibition of growth at 4 µM in [2] amounted to 45%; in [18], 82%. Further, the Ratio in data set [19] is listed as 1.8. Besides, the inhibition of growth at 10 µM in data set [3] turned out to be 50%; in [20], 84%. Moreover, the outcome in [5], in data set [23], in [24], in [14], in [15] and in data set [16] was Active. Also, the Drug uptake entry in [21] is recorded as “Active”; in data set [30], “Active”; in [31] it was “Not Active”. The inhibition of growth at 1 µM in data set [22] came to 20%; in data set [28] it was 35%. Further, the IC50 amounted to 10 µM in data set [10] and 2 µM in data set [12]. The inhibition is 21% in data set [25], 50% in data set [26] and 20% in data set [29]. For the same molecule, the “growth inhibition (GI)” value in data set [13] is “Dose-dependent effect”. Also, the inhibition entry in [27] is “inactive”.
For the molecule `CCCCCCCCCC(=O)Nc1ccc(O)cc1`, in data set [3], the inhibition of growth at 10 µM was determined as 0%. Besides, the “growth inhibition (GI)” value in data set [13] was “Dose-dependent effect”. The inhibition of growth at 4 µM in data set [18] was determined as 23%.
For `CCCCCCCCCCNc1ccc(O)cc1`, in that order: 55%, “Dose-dependent effect” and 82%.
With `CCCCCCCCCCCC(=O)Nc1ccc(O)cc1`, the inhibition of growth at 10 µM in data set [3] stood at 0%. Moreover, the “growth inhibition (GI)” value in data set [13] is “Dose-dependent effect”. Besides, the inhibition of growth at 4 µM in data set [18] amounted to 23%.
`CC1=C(/C=C/C(C)=C/C=C/C(C)=C/C(=O)O)C(C)(C)CCC1` [TRETINOIN]: the inhibition of growth at 4 µM in data set [2] was 15%; in data set [18], 17%. For the same molecule, the inhibition of growth at 10 µM in [3] stood at 18%; in [20], 28%.

Usually inhibition stands for the share of the control response that was lost under treatment. By IC50 is commonly meant the concentration needed to halve the response being measured. The low end stands for inhibition by little substance, the high end for a need for much substance.

(Values after ChEMBL document CHEMBL2010790, “Growth inhibition and mechanism of action of p-dodecylaminophenol against refractory human pancreatic cancer and cholangiocarcinoma” (Bioorg Med Chem, 2012).)
